Experimental data taken from patent US10792263B2, “Method of treating an individual having a microbial infection” (Sun Yat-sen University, priority 2012, dated 2020).
Like-named read-outs stand apart in the source and are kept apart here.

Assays:
[1] = tested on: E. coli K12 BW25113; conditions: mice, 6 times, blood at 48 hours
Protocol: (§1) A total of 15 6-week-old mice (purchased from the Laboratory Animals Center of Sun Yat-sen University) are randomly divided into three groups: saline control group and two treatment groups are administered with 3.25 or 6.5 mg glycine/mouse. The compound is intravenously administered at 3.25 or 6.5 mg glycine/injection/mouse every 12 hours and 6 times in total. Mice are intravenously injected 1×10^6 E. coli K12 BW25113 or E. coli clinical isolate Y17 at 12 hours after the last administration of glycine. Blood is withdrawn from mouse tail vein at 48 hours. The clearance of bacteria is determined by plate counting.

[2] = tested on: E. coli clinical isolate Y17; conditions: mice, 6 times, blood at 48 hours
Protocol: as §1

[3] = tested on: E. coli K12 BW25113, E. coli clinical strain Y17, Vibro alginolyticus, Vibro parahaemolyticus, Pseudomonas aeruginosa and Staphylococcus aureus; conditions: 100 μL serum/plasma of different animals plus 100 mM glycine, 4 hour
Protocol: (§2) Sample preparation: Single colonies of the parent strain E. coli K12 BW25113 are picked from Luria-Bertani (LB) agar plate, inoculated into 5 mL LB medium and incubated with shaking at 200 rpm, 37° C. for 16 hours. Cultures are then diluted 1:100 (v/v) in 200 mL fresh LB medium and grow to an OD600 of 1.0 at 37° C. with shaking. Cells are collected by centrifugation at 8000 rpm for 10 minutes at 4° C. and washed with 0.85% saline once.
A variety of bacteria (E. coli K12 BW25113, E. coli clinical strain Y17, Vibro alginolyticus, Vibro parahaemolyticus, Pseudomonas aeruginosa and Staphylococcus aureus) are cultured as described in Example 1.1. Aliquots of 3 mL bacteria are collected with OD600 of 1.0. Then, 100 μL serum/plasma from different animals or 100 μL serum/plasma of different animals plus 100 mM glycine are added and 100 mM glycine alone is used a control. Cells are cultured for 4 hour at 37° C. with shaking at 200 rpm. Bacteria are resuspended with 1 mL of saline. Absorbance is measured at 600 nm.

[4] = tested on: E. coli K12 BW25113; conditions: for increase of bactericidal effect, serum plus glycine versus serum: 100 μL human serum plus 100 mM glycine
Protocol: as §2
To understand whether glycine enhances the bactericidal effect of serum, experiments are carried out in 3 scenarios: the same volume of human serum mixed with different concentrations of glycine, different volumes of human serum mixed with the same concentration of glycine, and these mixtures are treated for different incubation periods.
Bacterial cells are prepared according to Example 1.1. Glycine is added to a final concentration of 0, 5, 10, 30, 50 and 100 mM and the mixtures are cultured for 1 hour at 37° C. with shaking at 200 rpm. Then 100 μL of human serum or saline are added as test and control groups, respectively. Bacteria are cultured for 2 hours and collected by centrifugation. Cells are resuspended with 1 mL of saline. Live bacterial cells are counted on LB agar plate. Survival rate is calculated as follows: number of live bacteria cells after treatment with different concentrations of glycine supplementation/number of live bacteria cells after treatment with saline×100%.
Bacterial samples are prepared and added with 100 mM glycine and cultured for 1 hour at 37° C. with shaking at 200 rpm. Then 0, 20, 40, 60, 80 or 100 μL human serum is added and cultured for 2 hours at 37° C. with shaking at 200 rpm. The controls are not mixed with glycine but only with different volumes of human serum. Bacteria are collected by centrifugation and resuspended with 1 mL of saline for spot-plate counting. The survival rate is calculated as follows: the number of live bacteria cells after treatment with glycine plus different volumes of human serum/the number of live cells after treatment with only human serum×100%.
The prepared bacterial samples are divided into 4 groups and treated separately as follows: with 100 mM glycine, 100 μL human serum, 100 μL human serum plus 100 mM glycine or saline alone as control. The mixtures are cultured for 0.5, 1, 2, 3, and 4 hours at 37° C. with shaking at 200 rpm. Bacteria are collected by centrifugation and resuspended in 1 mL saline. Bacteria are counted using LB agar plates. The survival rate is calculated as follows: the number of live bacteria after treatment with serum and/or glycine in different times/the number of live bacteria in the saline control group×100%.

[5] = tested on: E. coli K12 BW25113, E. coli clinical strain Y17, beta-hemolytic Streptococcus, Vibro alginolyticus, Vibro parahaemolyticus, Pseudomonas aeruginosa and …; conditions: 125-175 μL human serum plus 100-150 mM glycine, 4 hours
Protocol: as §2

[6] = tested on: E. coli; experiment: Human serum bactericidal assay with threonine, OD600 survival rate; format: cell-based, Escherichia coli; conditions: 2 hours
Protocol: The prepared bacterial cells are divided to four groups. […] Absorbance is measured at 600 nm Survival rate is calculated as follows: the OD in groups after treatment with serum, threonine or serum plus threonine/the OD in the control group treated with saline×100%. […] Certain bactericidal effect is detected in the group with serum alone. Compared with the group with serum alone, the group with serum plus threonine has a significant 1.5-fold increase of bactericidal effect.

[7] = 3.25 mg glycine/injection i.v. every 12 hours
[8] = 6.5 mg glycine/injection i.v. every 12 hours

SMILES | Clearance rate [1, 7] [%] | Clearance rate [1, 8] [%] | Clearance rate [2, 7] [%] | Clearance rate [2, 8] [%] | increase of bactericidal effect of animal serum/plasma, maximum [3] [fold] | increase of bactericidal effect of animal serum/plasma, minimum [3] [fold] | increase of the serum bactericidal effect ([4]; 5 mM glycine, 1 h preincubation, then 100 μL human serum for 2 hours, 37° C.) [fold] | elevation of serum bactericidal effect, serum volume series ([4]; 100 mM glycine plus 100 μL human serum, 2 hours, versus human serum only) [fold] | bactericidal effect of glycine alone ([4]; 100 mM glycine without serum, 0.5 to 4 hours) | increase of the serum bactericidal effect (highest effect) ([4]; 100 mM glycine, 1 h preincubation, then 100 μL human serum for 2 hours, 37° C.) [fold] | increase of bactericidal effect, serum plus glycine versus serum ([4]; after 0.5 hours) [fold] | increase of bactericidal effect, serum plus glycine versus serum ([4]; after 1 hour) [fold] | increase of bactericidal effect, serum plus glycine versus serum ([4]; after 4 hours) [fold] | increase of serum bactericidal effect, lower bound over all bacteria tested [5] | increase of serum bactericidal effect, maximum over all bacteria tested [5] | bactericidal effect of threonine alone ([6]; 100 mM threonine without serum) | increase of bactericidal effect, serum plus threonine versus serum alone ([6]; 100 μL human serum plus 100 mM threonine) [fold]
NCC(=O)O [glycine] | 89.32 | 96.85 | 32.95 | 52.53 | ~10 | ≥ 1.5 | 1.36 | 86 | no bactericidal effect | ~86 | 2 | 77 | 120 | more than 1 fold | up to 4.13 fold | – | –
C[C@@H](O)[C@H](N)C(=O)O [threonine] | – | – | – | – | – | – | – | – | – | – | – | – | – | – | – | no bactericidal effect | 1.5
